Measurements taken from patent publication US20170247326A1, “Substituted Pyrrolidine Carboxamide Compounds” (EPIZYME, INC., priority 2014, published 2017).

Biological target: T1, SMYD2 (Homo sapiens, UniProt Q9NRG4)
T1 construct: Full length SMYD2 (NP_064582.2) was cloned; His6 (N, cleaved yes); FLAG (N); made in house; host or cells: Sf9 insect cells
Experiment: SMYD2 biochemical assay (3H-SAM, biotinylated peptide substrate, Flashplate)
Details: Table 1; average of n = 1 to n = 50; read-out: SMYD2 Biochem IC50
Source text: S-adenosylmethionine (SAM), S-adenosylhomocysteine (SAH), bicine, Tween20, dimethylsulfoxide (DMSO), bovine skin gelatin (BSG), and Tris(2-carboxyethyl)phosphine hydrochloride (TCEP) were purchased from Sigma-Aldrich at the highest level of purity possible. ^3H-SAM was purchase from American Radiolabeled Chemicals with a specific activity of 80 Ci/mmol. 384-well streptavidin Flashplates were purchased from PerkinElmer.
Peptide was synthesized with a N-terminal linker-affinity tag motif and a C-terminal amide cap by 21st Century Biochemicals. The peptide was high high-performance liquid chromatography (HPLC) purified to greater than 95% purity and confirmed by liquid chromatography mass spectrometry (LC-MS). The sequence was […](K-Biot)-amide. (SEQ ID NO: 3)
Full length SMYD2 (NP_064582.2) was cloned into a pFastbac-Htb-lic vector with an N-terminal His6 tag and FLAG tag, preceded by a TEV protease cleavage site. The protein was expressed in Sf9 insect cells. Cells were resuspended in lysis buffer (25 mM HEPES-NaOH, pH 7.5, 200 mM NaCl, 5% glycerol, and 5 mM […] and lysed by sonication. The protein was purified by Ni-NTA (Qiagen), followed by TEV cleavage to remove the His6 tag, subtractive Ni-NTA (Qiagen), and gel filtration chromatography using an S200 column (GE Healthcare). Purified protein was stored in 20 mM Tris-HCl, pH 8.0, 100 mM NaCl, and 1 mM TCEP.
General Procedure for SMYD2 Enzyme Assays on Peptide Substrates
The assays were all performed in a buffer consisting of 20 mM Bicine (pH=7.6), 1 mM TCEP, 0.005% Bovine Skin Gelatin, and 0.002% Tween20, prepared on the day of use. Compounds in 100% DMSO (1 ul) were spotted into a polypropylene 384-well V-bottom plates (Greiner) using a Platemate Plus outfitted with a 384-channel head (Thermo Scientific). DMSO (1 ul) was added to Columns 11, 12, 23, 24, rows A-H for the maximum signal control and 1 ul of SAH, a known product and inhibitor of SMYD2, was added to columns 11, 12, 23, 24, rows I-P for the minimum signal control. A cocktail (40 ul) containing the SMYD2 enzyme was added by Multidrop Combi (Thermo-Fisher). The compounds were allowed to incubate with SMYD2 for 30 min at room temperature, then a cocktail (10 ul) containing ^3H-SAM and peptide was added to initiate the reaction (final volume=51 ul). The final concentrations of the components were as follows: SMYD2 was 1.5 nM, ^3H-SAM was 10 nM, and peptide was 60 nM, SAH in the minimum signal control wells was 1000 uM, and the DMSO concentration was 2%. The assays were stopped by the addition of non-radioactive SAM (10 ul) to a final concentration of 600 uM, which dilutes the ^3H-SAM to a level where its incorporation into the peptide substrate is no longer detectable. 50 ul of the reaction in the 384-well polypropylene plate was then transferred to a 384-well Flashplate and the biotinylated peptides were allowed to bind to the streptavidin surface for at least 1 hour before being washed three times with 0.1% Tween20 in a Biotek ELx405 plate washer. The plates were then read in a PerkinElmer TopCount plate reader to measure the quantity of ^3H-labeled peptide bound to the Flashplate surface, measured as disintegrations per minute (dpm) or alternatively, referred to as counts per minute (cpm).
Where dpm=disintegrations per minute, cmpd=signal in assay well, and min and max are the respective minimum and maximum signal controls.
Where top and bottom are the normally allowed to float, but may be fixed at 100 or 0 respectively in a 3-parameter fit. The Hill Coefficient normally allowed to float but may also be fixed at 1 in a 3-parameter fit. I is the compound concentration.
SMYD2 biochemical assay data for representative Compounds of the Disclosure are presented in Tables 1, 3, and 4 in the column titled “SMYD2 Bicohem IC50 (μM).”

T1 sequence (Q9NRG4 whole entry): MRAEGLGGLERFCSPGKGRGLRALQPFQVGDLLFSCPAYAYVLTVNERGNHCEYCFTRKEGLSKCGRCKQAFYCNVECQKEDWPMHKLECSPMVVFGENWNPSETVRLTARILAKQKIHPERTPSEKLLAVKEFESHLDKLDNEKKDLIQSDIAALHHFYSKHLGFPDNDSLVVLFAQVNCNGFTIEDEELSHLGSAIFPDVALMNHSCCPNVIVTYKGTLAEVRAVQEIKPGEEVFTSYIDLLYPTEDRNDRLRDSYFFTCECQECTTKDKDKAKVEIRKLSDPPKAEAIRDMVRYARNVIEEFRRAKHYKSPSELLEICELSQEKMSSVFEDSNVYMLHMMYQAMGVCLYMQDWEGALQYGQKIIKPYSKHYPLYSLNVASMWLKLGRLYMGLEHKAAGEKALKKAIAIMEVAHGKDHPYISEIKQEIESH

`C[C@H]1CN(C2CC2)C[C@H]1NC(=O)c1ccc2[nH]c(=O)[nH]c2c1` (racemic) [compound 23, (±)-cis-N-(1-cyclopropyl-4-methylpyrrolidin-3-yl)-2-oxo-2,3-dihydro-1H-benzo[d]imidazole-5-carboxamide] and `C[C@H]1CN(C2CC2)C[C@@H]1NC(=O)c1ccc2[nH]c(=O)[nH]c2c1` (racemic) [compound 22, (±)-trans-N-(1-cyclopropyl-4-methylpyrrolidin-3-yl)-2-oxo-2,3-dihydro-1H-benzo[d]imidazole-5-carboxamide] cannot be ordered by IC50: over 50 µM for the first, over 50 µM for the second.

`C[C@H]1CN(C2CC2)C[C@H]1NC(=O)c1ccc(N2CCCC2)cc1` (racemic) [compound 21, (±)-cis-N-(1-cyclopropyl-4-methylpyrrolidin-3-yl)-4-(pyrrolidin-1-yl)benzamide] and `C[C@H]1CN(C2CC2)C[C@@H]1NC(=O)c1ccc(N2CCCC2)cc1` (racemic) [compound 20, (±)-trans-N-(1-cyclopropyl-4-methylpyrrolidin-3-yl)-4-(pyrrolidin-1-yl)benzamide] cannot be ordered by IC50: over 50 µM for the first, over 50 µM for the second.

Same assay, conditions: Table 3; average of n = 1 to n = 50; read-out: SMYD2 Biochem IC50

First: CC(C)N1C[C@H](C)[C@H](NC(=O)c2cc(C3CC3)c[nH]c2=O)C1 (racemic) [compound 82, (±)-cis-5-cyclopropyl-N-[4-methyl-1-(propan-2-yl)pyrrolidin-3-yl]-2-oxo-1,2-dihydropyridine-3-carboxamide]
Second: CC(C)N1C[C@H](C)[C@H](NC(=O)c2cc(C3CC3)ccn2)C1 (racemic) [compound 105, (±)-cis-4-cyclopropyl-N-[4-methyl-1-(propan-2-yl)pyrrolidin-3-yl]pyridine-2-carboxamide]
The IC50 of the first is 20-fold higher: 13.6 µM for the first, 0.694 µM for the second.

Going from `CC(C)N1C[C@@H](C)[C@H](NC(=O)c2cc(C3CC3)[nH]n2)C1` (racemic) [compound 62, (±)-trans-5-cyclopropyl-N-[4-methyl-1-(propan-2-yl)pyrrolidin-3-yl]-1H-pyrazole-3-carboxamide] to `CC(C)N1C[C@H](C)[C@H](NC(=O)c2ncc(C3CC3)[nH]2)C1` (racemic) [compound 79, (±)-cis-5-cyclopropyl-N-[4-methyl-1-(propan-2-yl)pyrrolidin-3-yl]-1H-imidazole-2-carboxamide], the IC50 falls from over 50 µM to 1.96 µM. The second is the more potent here.

Going from `C[C@@H]1CN(C2CC2)C[C@H]1NC(=O)c1cccc(N2CCCC2)c1` (racemic) [compound 34, (±)-trans-N-[1-cyclopropyl-4-methylpyrrolidin-3-yl]-3-(pyrrolidin-1-yl)benzamide] to `CCN1C[C@H](C)[C@H](NC(=O)c2cc(C3CC3)cnn2)C1` (racemic) [compound 100, (±)-cis-5-cyclopropyl-N-(1-ethyl-4-methylpyrrolidin-3-yl)pyridazine-3-carboxamide], the IC50 falls from over 50 µM to 0.611 µM. The second is the more potent here.

`CC(C)N1C[C@@H](C)[C@H](NC(=O)c2cnc(C3CC3)o2)C1` (racemic) [compound 70, (±)-trans-2-cyclopropyl-N-[4-methyl-1-(propan-2-yl)pyrrolidin-3-yl]-1,3-oxazole-5-carboxamide] and `CC(C)N1C[C@@H](C)[C@H](NC(=O)c2ncc(C3CC3)o2)C1` (racemic) [compound 73, (±)-trans-5-cyclopropyl-N-[4-methyl-1-(propan-2-yl)pyrrolidin-3-yl]-1,3-oxazole-2-carboxamide] cannot be ordered by IC50: over 50 µM for the first, over 50 µM for the second.

`CC(C)N1C[C@H](C)[C@H](NC(=O)c2cncc(C3CC3)n2)C1` (racemic) [compound 42, (±)-cis-6-cyclopropyl-N-[4-methyl-1-(propan-2-yl)pyrrolidin-3-yl]pyrazine-2-carboxamide] and `CC(C)N1C[C@@H](C)[C@H](NC(=O)c2cncc(C3CC3)n2)C1` (racemic) [compound 43, (±)-trans-6-cyclopropyl-N-[4-methyl-1-(propan-2-yl)pyrrolidin-3-yl]pyrazine-2-carboxamide] cannot be ordered by IC50: over 50 µM for the first, over 50 µM for the second.

Going from `CC(C)N1C[C@H](C)[C@H](NC(=O)c2ncc(C3CC3)s2)C1` (racemic) [compound 69, (±)-cis-5-cyclopropyl-N-[4-methyl-1-(propan-2-yl)pyrrolidin-3-yl]-1,3-thiazole-2-carboxamide] to `CC(C)N1C[C@@H](C)[C@H](NC(=O)c2nnc(C3CC3)s2)C1` (racemic) [compound 48, (±)-trans-5-cyclopropyl-N-[4-methyl-1-(propan-2-yl)pyrrolidin-3-yl]-1,3,4-thiadiazole-2-carboxamide], the IC50 rises from 3.3 µM to 39.5 µM (12-fold).

`CC(C)N1C[C@@H](C)[C@H](NC(=O)c2coc(C3CC3)n2)C1` (racemic) [compound 54, (±)-trans-2-cyclopropyl-N-[4-methyl-1-(propan-2-yl)pyrrolidin-3-yl]-1,3-oxazole-4-carboxamide] and `CC(C)N1C[C@@H](C)[C@@H](NC(=O)c2cc(C3CC3)n(C)n2)C1` (racemic) [compound 89, (±)-cis-5-cyclopropyl-1-methyl-N-[4-methyl-1-(propan-2-yl)pyrrolidin-3-yl]-1H-pyrazole-3-carboxamide] cannot be ordered by IC50: over 50 µM for the first, over 50 µM for the second.

`CC(C)N1C[C@H](C)[C@H](NC(=O)c2nc(C3CC3)cs2)C1` (racemic) [compound 35, (±)-cis-4-cyclopropyl-N-[4-methyl-1-(propan-2-yl)pyrrolidin-3-yl]-1,3-thiazole-2-carboxamide] and `CC(C)N1C[C@H](C)[C@H](NC(=O)c2cc(C3CC3)ns2)C1` (racemic) [compound 91, (±)-cis-3-cyclopropyl-N-[4-methyl-1-(propan-2-yl)pyrrolidin-3-yl]-1,2-thiazole-5-carboxamide] cannot be ordered by IC50: over 50 µM for the first, over 50 µM for the second.

Going from `C[C@H]1CN(Cc2ccccc2)C[C@H]1NC(=O)c1cc(C2CC2)cnn1` (racemic) [compound 99, (±)-cis-N-(1-benzyl-4-methylpyrrolidin-3-yl)-5-cyclopropylpyridazine-3-carboxamide] to `C[C@H]1CN(Cc2ccc(OCc3ccccc3)cc2)C[C@@H]1NC(=O)c1cc(C2CC2)cnn1` (racemic) [compound 107, (±)-trans-N-(1-{[4-(benzyloxy)phenyl]methyl}-4-methylpyrrolidin-3-yl)-5-cyclopropylpyridazine-3-carboxamide], the IC50 rises from 0.574 µM to 2.7 µM (4.7-fold).

First: C[C@H]1CN(Cc2ccc(OCc3ccccc3)cc2)C[C@H]1NC(=O)c1cn(C2CC2)nn1 (stereo in doubt) [compound 106, (±)-cis-N-(1-{[4-(benzyloxy)phenyl]methyl}-4-methylpyrrolidin-3-yl)-1-cyclopropyl-1H-1,2,3-triazole-4-carboxamide]
Second: CCc1cnnc(C(=O)N[C@@H]2CN(C(C)C)C[C@@H]2C)c1 (racemic) [compound 96, (±)-cis-5-ethyl-N-[4-methyl-1-(propan-2-yl)pyrrolidin-3-yl]pyridazine-3-carboxamide]
The IC50 of the first is 11-fold lower: 0.46 µM for the first, 5.09 µM for the second.

Work on `CC(C)N1C[C@@H](C)[C@H](NC(=O)c2ccc3c(c2)OCC(=O)N3)C1` (racemic) [compound 28, (±)-trans-N-[4-methyl-1-(propan-2-yl)pyrrolidin-3-yl]-3-oxo-3,4-dihydro-2H-1,4-benzoxazine-7-carboxamide] yielded an IC50 of over 50 µM.

Same assay, conditions: Table 4; average of n = 1 to n = 50; read-out: SMYD2 Biochem IC50

`C[C@H]1CN(Cc2ccc(OCc3ccccc3)cc2)C[C@@H]1NC(=O)c1cc(C2CC2)cnn1` (racemic) [compound 132, rac-N-((3R,4S)-1-(4-(benzyloxy)benzyl)-4-methylpyrrolidin-3-yl)-5-cyclopropylpyridazine-3-carboxamide] gave an IC50 of 2.7 µM.
